Numbers after ± are expanded uncertainties.
Test: xn = mol fraction of the nth substance listed
Conditions: 100 kPa, Liquid; for speed of sound: Frequency=3 MHz, Single path-length method; for mass density: Vibrating tube method

OCC(O)CO [glycerol] + CO
Conditions | mass density, 283.15 K [kg/m3] | mass density, 293.15 K [kg/m3] | mass density, 303.15 K [kg/m3] | mass density, 313.15 K [kg/m3] | speed of sound, 283.15 K [m/s] | speed of sound, 293.15 K [m/s] | speed of sound, 303.15 K [m/s] | speed of sound, 313.15 K [m/s]
x2 = 0 | 1267 ± 1 | 1261 ± 1 | 1255 ± 1 | 1248 ± 1 | 1942.3 ± 4.1 | 1922.9 ± 4.1 | 1901 ± 4.1 | 1879.3 ± 4.1
x2 = 0.1003 | 1244 ± 1 | 1238 ± 1 | 1232 ± 1 | 1225 ± 1 | 1901.8 ± 4.2 | 1873 ± 4.2 | 1848.8 ± 4.2 | 1826.1 ± 4.2
x2 = 0.1997 | 1220 ± 1 | 1213 ± 1 | 1207 ± 1 | 1200 ± 1 | 1841.5 ± 4.2 | 1816.1 ± 4.2 | 1792.7 ± 4.2 | 1770 ± 4.2
x2 = 0.3002 | 1192 ± 1 | 1186 ± 1 | 1179 ± 1 | 1172 ± 1 | 1779.2 ± 4.2 | 1755.3 ± 4.2 | 1732.3 ± 4.2 | 1709.5 ± 4.2
x2 = 0.4011 | 1158 ± 1 | 1152 ± 1 | 1145 ± 1 | 1138 ± 1 | 1708.9 ± 4.2 | 1684.6 ± 4.2 | 1660.7 ± 4.2 | 1637.1 ± 4.2
x2 = 0.4999 | 1119 ± 1 | 1112 ± 1 | 1105 ± 1 | 1098 ± 1 | 1628.4 ± 4.2 | 1604 ± 4.2 | 1579.6 ± 4.2 | 1555.3 ± 4.2
x2 = 0.5998 | 1075 ± 1 | 1068 ± 1 | 1060 ± 1 | 1053 ± 1 | 1546.5 ± 4.2 | 1521.1 ± 4.2 | 1495.6 ± 4.2 | 1470.4 ± 4.2
x2 = 0.7 | 1024 ± 1 | 1016 ± 1 | 1009 ± 1 | 1001 ± 1 | 1457.7 ± 4.2 | 1430.9 ± 4.2 | 1404.2 ± 4.2 | 1377.6 ± 4.2
x2 = 0.8002 | 964 ± 1 | 956 ± 1 | 947 ± 1 | 939 ± 1 | 1364.5 ± 4.2 | 1336.1 ± 4.2 | 1307.8 ± 4.2 | 1279.7 ± 4.2
x2 = 0.8999 | 892 ± 1 | 883 ± 1 | 874 ± 1 | 865 ± 1 | 1265.5 ± 4.2 | 1234.9 ± 4.2 | 1204.5 ± 4.2 | 1174.5 ± 4.2

OCC(O)CO [glycerol] + CCO
Conditions | mass density, 283.15 K [kg/m3] | mass density, 293.15 K [kg/m3] | mass density, 303.15 K [kg/m3] | mass density, 313.15 K [kg/m3] | speed of sound, 283.15 K [m/s] | speed of sound, 293.15 K [m/s] | speed of sound, 303.15 K [m/s] | speed of sound, 313.15 K [m/s]
x2 = 0 | 1267 ± 1 | 1261 ± 1 | 1255 ± 1 | 1248 ± 1 | 1942.3 ± 4.1 | 1922.9 ± 4.1 | 1901 ± 4.1 | 1879.3 ± 4.1
x2 = 0.0999 | 1233 ± 1 | 1227 ± 1 | 1220 ± 1 | 1214 ± 1 | 1882.1 ± 4.2 | 1852.5 ± 4.2 | 1827.9 ± 4.2 | 1804.6 ± 4.2
x2 = 0.2002 | 1199 ± 1 | 1193 ± 1 | 1186 ± 1 | 1179 ± 1 | 1804.3 ± 4.2 | 1778.9 ± 4.2 | 1753.4 ± 4.2 | 1729.7 ± 4.2
x2 = 0.2998 | 1161 ± 1 | 1155 ± 1 | 1148 ± 1 | 1140 ± 1 | 1721.8 ± 4.2 | 1696.1 ± 4.2 | 1671.4 ± 4.2 | 1647.2 ± 4.2
x2 = 0.4001 | 1120 ± 1 | 1113 ± 1 | 1106 ± 1 | 1099 ± 1 | 1639.2 ± 4.2 | 1613.3 ± 4.2 | 1587.9 ± 4.2 | 1562.8 ± 4.2
x2 = 0.4993 | 1077 ± 1 | 1069 ± 1 | 1062 ± 1 | 1055 ± 1 | 1557.7 ± 4.2 | 1530.9 ± 4.2 | 1504.6 ± 4.2 | 1478.5 ± 4.2
x2 = 0.6004 | 1029 ± 1 | 1021 ± 1 | 1014 ± 1 | 1006 ± 1 | 1476.1 ± 4.2 | 1448.4 ± 4.2 | 1421.1 ± 4.2 | 1394 ± 4.2
x2 = 0.699 | 978 ± 1 | 970 ± 1 | 963 ± 1 | 955 ± 1 | 1401.7 ± 4.2 | 1372.8 ± 4.2 | 1344.2 ± 4.2 | 1315.8 ± 4.2
x2 = 0.9002 | 862 ± 1 | 854 ± 1 | 845 ± 1 | 837 ± 1 | 1263.5 ± 4.2 | 1231.4 ± 4.2 | 1199.4 ± 4.2 | 1167.7 ± 4.2

OCC(O)CO [glycerol] + O
Conditions | mass density, 283.15 K [kg/m3] | mass density, 293.15 K [kg/m3] | mass density, 303.15 K [kg/m3] | mass density, 313.15 K [kg/m3] | speed of sound, 283.15 K [m/s] | speed of sound, 293.15 K [m/s] | speed of sound, 303.15 K [m/s] | speed of sound, 313.15 K [m/s]
x2 = 0 | 1267 ± 1 | 1261 ± 1 | 1255 ± 1 | 1248 ± 1 | 1942.3 ± 6.1 | 1922.9 ± 6.1 | 1901 ± 6.1 | 1879.3 ± 6.1
x2 = 0.1003 | 1261 ± 1 | 1255 ± 1 | 1249 ± 1 | 1243 ± 1 | 1951.7 ± 6.1 | 1922 ± 6.1 | 1897.9 ± 6.1 | 1875.7 ± 6.1
x2 = 0.1998 | 1254 ± 1 | 1248 ± 1 | 1242 ± 1 | 1236 ± 1 | 1940.9 ± 6.1 | 1915.6 ± 6.1 | 1893.3 ± 6.1 | 1871.9 ± 6.1
x2 = 0.3014 | 1246 ± 1 | 1240 ± 1 | 1234 ± 1 | 1228 ± 1 | 1931.5 ± 6.1 | 1909 ± 6.1 | 1888 ± 6.1 | 1867.3 ± 6.1
x2 = 0.4042 | 1236 ± 1 | 1230 ± 1 | 1224 ± 1 | 1218 ± 1 | 1919.2 ± 6 | 1899.3 ± 6 | 1879.7 ± 6 | 1859.8 ± 6
x2 = 0.5011 | 1224 ± 1 | 1218 ± 1 | 1212 ± 1 | 1205 ± 1 | 1903.7 ± 6 | 1886 ± 6 | 1867.9 ± 6 | 1849.3 ± 6
x2 = 0.6011 | 1206 ± 1 | 1201 ± 1 | 1194 ± 1 | 1188 ± 1 | 1879.7 ± 6 | 1864.7 ± 6 | 1848.8 ± 6 | 1832 ± 6
x2 = 0.7003 | 1183 ± 1 | 1177 ± 1 | 1172 ± 1 | 1166 ± 1 | 1841.6 ± 6 | 1830.6 ± 6 | 1818.2 ± 6 | 1804.5 ± 6
x2 = 0.7999 | 1148 ± 1 | 1143 ± 1 | 1137 ± 1 | 1131 ± 1 | 1772.9 ± 6 | 1769.3 ± 6 | 1763.5 ± 6 | 1755.4 ± 6
x2 = 0.9024 | 1091 ± 1 | 1087 ± 1 | 1083 ± 1 | 1078 ± 1 | 1648.7 ± 6.1 | 1659.3 ± 6.1 | 1665.8 ± 6 | 1668.4 ± 6

From the NIST ThermoML archive (doi:10.1016/j.jct.2017.01.011)
